Broadly, the inhibition is the relative decrease from the control value, in per cent.

Here are results for one compound from article PMC12769565, “Design, synthesis and biological activity of glycoconjugated ADAMTS5 exosite inhibitors: applications in osteoarthritis and ovarian cancer models” (Scientific Reports, 2025).

Molecules are shown by their SMILES.

What all share (type): biochemical
Test [1] deals with T1, ADAMTS4 (Homo sapiens, UniProt O75173).
T1 construct: Human recombinant full-length FLAG-tagged ADAMTS4 and ADAMTS5 were expressed in HEK293T cells; FLAG; made in house; host or cells: HEK293T cells
T1 sequence (O75173 213-837): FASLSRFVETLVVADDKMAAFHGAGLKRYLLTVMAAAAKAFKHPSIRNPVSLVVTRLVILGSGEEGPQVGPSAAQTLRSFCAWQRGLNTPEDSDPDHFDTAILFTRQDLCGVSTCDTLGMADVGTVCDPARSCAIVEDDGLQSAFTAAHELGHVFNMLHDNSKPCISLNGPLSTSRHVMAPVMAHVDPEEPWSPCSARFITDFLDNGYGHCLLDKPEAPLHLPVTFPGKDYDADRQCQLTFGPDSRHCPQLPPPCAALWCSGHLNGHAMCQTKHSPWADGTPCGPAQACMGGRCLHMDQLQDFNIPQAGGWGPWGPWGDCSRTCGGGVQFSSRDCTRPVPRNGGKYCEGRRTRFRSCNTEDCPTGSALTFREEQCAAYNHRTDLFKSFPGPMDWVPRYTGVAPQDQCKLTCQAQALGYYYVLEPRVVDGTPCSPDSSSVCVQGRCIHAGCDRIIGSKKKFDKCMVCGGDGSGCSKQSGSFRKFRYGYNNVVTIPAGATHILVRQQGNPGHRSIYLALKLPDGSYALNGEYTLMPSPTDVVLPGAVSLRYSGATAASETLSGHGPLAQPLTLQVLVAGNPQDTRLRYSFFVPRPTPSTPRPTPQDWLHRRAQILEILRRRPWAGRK
Put plainly: QF peptide cleavage assay (peptidolytic activity). The note with it: compared to DMSO control. The procedure:
(§1) Human recombinant full-length FLAG-tagged ADAMTS4 and ADAMTS5 were expressed in HEK293T cells (Thermo Fisher Scientific) and purified by anti-FLAG immunoaffinity chromatography as before. Concentrations of active proteases were determined by active-site titrations with known concentrations of TIMP-3 (Bio-Techne, 973-TM-010), using QF peptides as substrates. V1-5GAG, a truncated version of versican V1 isoform comprising residues 21–694 and containing a C-terminal 6x His tag[67], was expressed in HE293T cells and purified by immobilized metal affinity chromatography as before.
(§2) QF peptide cleavage assays were conducted in TNC-B (50 mM Tris–HCl, pH 7.5, 150 mM NaCl, 10 mM CaCl2, and 0.02% NaN3) on a SpectraMax i3x Multi-Mode Platform (Molecular Devices, UK) in a total volume of 20 µl at 37℃ as before. ADAMTS4 (3.5 nM) or ADAMTS5 (4 nM) were incubated with compounds 1–4 (100 µM, diluted in TNC-B from 10 mM DMSO stocks) or DMSO for 1 h at 37 ℃ before addition of QF peptides fluorescein-5(6)-carbonyl-[…]N, N,N0,N0-tetramethyl-6-carboxyrhodamine, and fluorescein-5(6)-carbonyl-Thr-Glu-Ser-Glu - […]N, N,N0,N0-tetramethyl-6-carboxyrhodamine, respectively, each at 40 µM. Fluorescence intensity was recorded with an excitation wavelength of 485 nm and an emission wavelength of 535 nm every min for 2 h, expressed as relative fluorescence units and normalized against a blank containing only buffer and substrate. Fluorescence values were converted into residual activity by fixing as 100% the activity of the reactions containing an equal concentration (v/v) of DMSO instead of compound (DMSO control).

Test [2] addresses T2, ADAMTS5 (Homo sapiens, UniProt Q9UNA0).
T2 construct: Human recombinant full-length FLAG-tagged ADAMTS4 and ADAMTS5 were expressed in HEK293T cells; FLAG; made in house; host or cells: HEK293T cells
T2 sequence (Q9UNA0 262-930): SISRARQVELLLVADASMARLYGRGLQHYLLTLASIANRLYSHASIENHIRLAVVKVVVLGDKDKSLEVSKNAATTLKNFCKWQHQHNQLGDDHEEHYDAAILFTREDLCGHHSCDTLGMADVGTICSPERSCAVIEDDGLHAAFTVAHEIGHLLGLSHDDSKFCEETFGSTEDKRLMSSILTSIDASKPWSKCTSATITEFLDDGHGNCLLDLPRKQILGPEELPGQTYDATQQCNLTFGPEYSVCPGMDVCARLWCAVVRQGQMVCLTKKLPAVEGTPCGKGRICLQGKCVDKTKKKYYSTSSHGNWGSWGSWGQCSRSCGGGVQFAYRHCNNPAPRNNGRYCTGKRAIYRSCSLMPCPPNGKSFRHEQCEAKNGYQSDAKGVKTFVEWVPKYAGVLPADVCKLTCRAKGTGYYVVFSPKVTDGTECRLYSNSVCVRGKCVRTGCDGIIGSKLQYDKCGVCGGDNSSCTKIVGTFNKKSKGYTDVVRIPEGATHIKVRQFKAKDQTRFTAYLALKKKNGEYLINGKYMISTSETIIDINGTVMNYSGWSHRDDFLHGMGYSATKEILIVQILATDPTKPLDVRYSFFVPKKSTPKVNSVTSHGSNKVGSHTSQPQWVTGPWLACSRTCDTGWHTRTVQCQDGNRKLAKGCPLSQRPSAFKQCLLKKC
Put plainly: QF peptide cleavage assay (peptidolytic activity). The conditions noted are these: 100 µM; compared to DMSO control. The method, then: as §1, §2

Test [3] concerns the target T1, ADAMTS4. Put plainly: Versicanase assay (V1-5GAG, versikine sandwich ELISA). The conditions noted are these: compared to DMSO control. The method, then: as §1
Compounds 1–4 (100 µM) or DMSO were incubated with ADAMTS4 (5 nM) or ADAMTS5 (0.4 nM) for 2 h at 37 °C, before addition of V1-5GAG (50 nM). At each time point, reactions were stopped by addition of ethylenediaminetetraacetic acid and ADAMTS-generated versican fragments (versikine) quantified by sandwich ELISA as before[29],[30],[38] using anti-DPEAAE neoepitope antibody (Life Technologies, PA1-1748 A, 5 µg/ml) and polyclonal anti-versican antibody (Abcam, ab171887, 3 µg/ml). For each reaction, the amount of versikine generated was derived from a standard curve (0–1.56 nM) of V1-5GAG completely digested with ADAMTS5. Initial velocities were calculated from the concentration of versikine generated as a function of reaction time. Percent of inhibition was calculated from the DMSO control reactions. IC50 values were determined using the formula: vi/v0 = 1/(1 + [I]/IC50) where vi is the initial velocity of substrate cleavage in the presence of the inhibitor at concentration [I] and v0 is the initial velocity in the presence of an equal concentration (v/v) of DMSO.

Test [4] addresses T2, ADAMTS5. Put plainly: Aggrecanase assay (bovine aggrecan, anti-ARGSV neoepitope immunoblot). The note with it: 100 µM. The method, then: Aggrecanase assays were carried out as before. ADAMTS5 (1 nM) was incubated with compounds 2 and 3 or DMSO for 2 h at 37 °C in TNC-B buffer before addition of bovine articular aggrecan (UniProt ID: P13608, 270 nM) (Merck, A1960). After 2 h digestion at 37 °C, the reactions were stopped with ethylenediaminetetraacetic acid and the samples incubated with 0.1 U/ml of chondroitinase ABC (AMS Biotechnology, Abingdon, UK) and keratanase (endo-beta galactosidase, Merck, G6920) in deglycosylation buffer (50 mM sodium acetate, 25 mM Tris HCl pH 8.0) for 16 h at 37 °C to remove GAG chains.
Samples were separated by SDS-PAGE under reducing conditions (5% β-mercaptoethanol) on BOLT, 4–12%, Bis-Tris Gels (Invitrogen) in MES Running Buffer (NuPAGE). Proteins were transferred onto a nitrocellulose membrane using Trans-Blot Turbo™ Transfer System (BioRad), at 25 V, 2.5 A for 30 min. Membranes were blocked with 3% BSA/PBS for 1 h at room temperature. Aggrecan fragments generated by ADAMTS cleavage at E^392-A^393[8] or E^1953-A^1954[68] were detected using mouse monoclonal anti-ARGSV antibody (BC3, Life Technologies, MA3-16888, 4 µg/ml) or polyclonal anti-AGEG neoepitope antibody (serum, 1:200 dilution)[12],[33], respectively, followed by the appropriate horseradish peroxidase (HRP)-conjugated secondary antibodies (polyclonal Goat Anti-Mouse P0447, 0.1 ng/µl and polyclonal Goat Anti-Rabbit, P0448, 0.03 ng/µl, both from Agilent Technologies LDA UK Ltd). All antibodies were diluted in 0.5% bovine serum albumin (BSA)/PBS. Washes between each step were carried out in triplicate, for 15 min each, with PBS-Tween (0.1%). Following addition of the chemiluminescent HRP substrate (Millipore, WBKL30500) membranes were imaged using Bio-Rad Chemidoc Touch Imaging System. Analysis was carried out using BioRad ImageLab software (version 5.2.1) using sequential exposures to avoid saturation artifacts. Figures for unprocessed blots are included in Supplementary information Fig. S4 and Fig. S5 with highlighted regions (in red boxes) corresponding to the data reported in the main manuscript figures.
For orientation: Immunoblotting shows a protein as a band on a membrane.

`CCC(C)N(Cc1cn(CCCO[C@@H]2O[C@H](CO[C@@H]3O[C@H](CO)[C@H](O)[C@H](O)[C@H]3O)[C@@H](O)[C@H](O)[C@H]2NC(C)=O)nn1)S(=O)(=O)c1ccc(-c2ccccc2)cc1` (stereo partly drawn) [compound 3, N-((2R,3R,4R,5 S,6R)-2-(3-(4-((N-(sec-butyl)-[1,1’-biphenyl]-4-sulfonamido)methyl)-1 H-1,2,3-triazol-1-yl)propoxy)-4,5-dihydroxy-6-((((2R,3R,4 S,5R,6R)-3,4,5-trihydroxy-6-(hydroxymethyl)tetrahydro-2 H-pyran-2-yl)oxy)methyl)tetrahydro-2 H-pyran-3-yl)acetamide]: the inhibition at 100 µM came to 48% against ADAMTS4 [1] and 42% on ADAMTS4 [3]. In addition, on ADAMTS5 [2], the “inhibition of ADAMTS5 peptidolytic activity” value is reported as “significant inhibition”. In addition, the “inhibition of ADAMTS5 aggrecanase activity” value on ADAMTS5 [4] was “ineffective”.
